Consider four molecules from patent US20250136617A1 (The Regents of the University of Colorado, A Body Corporate, priority 2022, published 2025).

Assay [1] has as its target T1, CXCR4 (Homo sapiens, UniProt P61073). Briefly: cAMP signaling assay, oxazole scaffold (forskolin-induced adenylate cyclase, CHO-K1 CXCR4 cells). The assay is classed as cell-based. Also noted: host or cells: CHO-K1. The method, then:
The CXCR4 receptor is a G-protein coupled receptor (GPCR) coupled to the Gi class, whose primary role is inhibition of adenylate cyclase. The ability of UCUF-728 to induce Gi-mediated cAMP-inhibitory cellular response was tested.
Forskolin at final concentration of […] was added to all wells using the TECAN dispenser. […] PathHunter CHO-K1 CXCR4 cells (DiscoverX, Fremont, CA) were added to compounds at 3,000 cells/well, centrifuged at 1000 rpm for 30 sec and incubated for 30 min at room temperature. DMSO (Sigma Aldrich, St. Louis, MO) was normalization to 0.5%. 5 μL of 4× Eu-cAMP tracer working solution was added to all wells followed by addition of 5 μL of 4× Ulight-anti-cAMP working solution to all wells. Plates were centrifuged at 1000 rpm for 1 min and incubated for 1 hr at room temperature then read using CLARIOstar Plus (BMG LABTECH Inc., Cary, NC) Lance CAMP protocol.

Assay [2] has as its target T1, CXCR4. Briefly: Adenylate cyclase (cAMP inhibition) assay, thiadiazine scaffold, CHO-CXCR4-cAMP cells. The assay is classed as cell-based. The arrangement: host or cells: CHO-K1. The method, then: Tango™ CXCR4-bla U2OS Cells (Invitrogen; K1779) were used for (β-arrestin recruitment assays and maintained as a monolayer culture in McCoy's 5a (Corning; 10-050-CV) supplemented with 10% dialyzed Fetal Bovine Serum (Gibco; 26400-044), 0.1 mM MEM Non-essential amino acids solution, 25 mM HEPES solution (Corning; 25-060-CI), 1 mM Sodium Pyruvate (Gibco; 11360-070), 200 μg/mL Zeocin selection reagent (Gibco; R25001), 50 μg/mL Hygromycin B (Gibco, 10687010), and 100 μg/mL Geneticin (G418 Sulfate) (Gibco, 10131035). U2OS cells were subcultured twice weekly by 0.05% Trypsin-EDTA treatment (Corning; 25-051-CI) and passaged to continue exponential growth phase for cell signaling assays. All cell cultures were maintained in cell culture incubators at 37° C. with 5% CO2. CHO-K1 CXCR4 cells (DiscoverX, Fremont, CA, USA) were used for cAMP inhibition assays and maintained as a monolayer culture in DMEM/F12 (Corning; 10-091-CV) supplemented with 10% Fetal Bovine Serum (Corning; 35-011-CV) and 100IU penicillin, […] streptomycin sulfate (Corning; 30-002-CI) and […] G418 (Gibco; 101310350. Cells were subculture 2 times weekly by o.o5% Trypsin-EDTA treatment (Corning; 25-051-CI) and passaged to continue exponential growth phase for cell signaling assays. All cell cultures were maintained in cell culture incubators at 37° C. with 5% CO2.CEM-CCRF cells (ATCC CCL-119) were used in both the migration and calcium flux assays and were cultured in growth media consisting of RPMI 1640 (Corning; 10-040-CV) supplemented with 10% Fetal Bovine Serum (Corning; 35-011-CV), and 100 IU penicillin, […] streptomycin sulfate (Corning; 30-002-CI). […] Cells were harvested for use in migration and calcium flux assays at 2.0×10^6 cells/mL to 2.5×10^6 cells/mL and resuspended in assay media to desired density for respective experiments.
Compounds and DMSO normalization to 0.5% were dispensed using the TECAN D300e digital dispenser into the wells of a 384-well white wall clear-bottom assay plate (Griener 781983). […] This cell suspension was dispensed at 20 μL per well into the assay plate and allowed to incubate overnight for approximately 18 hrs with compounds in cell culture incubator at 37° C. with 5% CO2. Following incubation, DMEM/F12 media was gently removed, then the Lance Ultra cAMP Kit (Perkin Elmer; TRF0263) was performed according to the supplier guidelines. […] Time-resolved fluorescence was measured on the BMG LABTECH CLARIOstar Plus (BMG LABTECH Inc., Cary, NC) using the Lance Ultra cAMP kit guidelines for excitation and emission. […]

Assay [3] relates to CEM-CCRF human lymphoblast cells. Nature of the assay: Transwell migration assay in CEM-CCRF lymphoblasts. The assay is classed as cell-based. The method, then:
Thus, to confirm CXCR4 functional activity, UCUF-728 was evaluated in a 96 w transwell migration assay in CEM human lymphoblast cells.
CEM-CCRF (ATCC CCL-119) were suspended in RPMI 1640 (Corning; 10-040-CV) at 5.0×10^5 cells/mL and allowed to incubate in cell culture incubator at 37° C. with 5% CO2 for one hour. […] Plates were reassembled and placed in a cell culture incubator at 37° C. with 5% CO2 for three hours. After incubation, Multi-Screen plate was disassembled and 100 μl of solution was collected from compound receiver tray and transferred to 96 well luminescent plate (Thermo Scientific; 265302) and an equal volume of ATPLite Istep luminescence reagent (Perkin Elmer, Waltham, MA; 6016731) was added to each well. Luminescence was measured using the CLARIOstar Plus (BMG LABTECH Inc., Cary, NC).

Assay [4] has as its target T1, CXCR4. Nature of the assay: Tag-Lite CXCR4 binding assay (displacement of fluorescent SDF-1α). Here is the method: Binding activity was measured using the Cisbio Tag-Lite Chemokine CXCR4 system (CisBio, Bedford, MA). […] Following three-hour incubation, HTRF measurements were taken using the BMG LABTECH CLARIOstar Plus (BMG LABTECH Inc., Cary, NC) with emission signals set to the Cisbio Tag-Lite Binding Assay supplier guidelines. HTRF ratio calculations completed according to supplier guidelines.

The target in assay [5] is T1, CXCR4. Briefly: β-arrestin recruitment, 384-well, Tango CXCR4-bla U2OS cells, normalized to SDF-1α. The note with it: normalized to SDF-1α; read-out: ß-arrestin recruitment EC50. The arrangement: host or cells: U2OS. The assay is classed as cell-based. The method in brief: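 Tango CXCR4-bla U2OS cells plated in DMEM with 1% dialyzed FBS (FreeStyle 293 medium for thiadiazines), incubated overnight at 37 °C, then LiveBLAzer FRET B/G substrate added for 2 h in the dark. Fluorescence read; EC50 and Emax fitted with Hill slope 1.0, normalized to SDF-1α.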
On the technique in general: Recruitment of arrestin is a read-out of receptor activation apart from second messengers.

Entries after “also recorded” stand apart in the source; their conditions may differ. Like-named read-outs stand apart in the source and are kept apart here.

T1 sequence (P61073 whole entry): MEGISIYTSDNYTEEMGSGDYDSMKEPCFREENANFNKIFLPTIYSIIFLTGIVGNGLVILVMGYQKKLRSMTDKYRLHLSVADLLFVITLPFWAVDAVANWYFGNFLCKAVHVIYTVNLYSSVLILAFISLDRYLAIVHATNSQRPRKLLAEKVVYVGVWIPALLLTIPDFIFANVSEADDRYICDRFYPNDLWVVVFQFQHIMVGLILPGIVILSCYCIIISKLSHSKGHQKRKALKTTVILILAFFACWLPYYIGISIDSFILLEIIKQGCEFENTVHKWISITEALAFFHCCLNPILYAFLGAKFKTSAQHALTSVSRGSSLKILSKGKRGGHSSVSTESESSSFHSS

For the molecule `c1cc(CN2CCCNCCNCCCNCC2)ccc1CN1CCCNCCNCCCNCC1` [AMD3100, reference compound], the “cAMP signaling / forskolin-induced adenylate cyclase” value in assay [1] is “dose-dependently blocked; also recorded: dose-dependent inhibition of 40 nM SDF-1α”. Besides, the “cAMP inhibition activity” value in assay [2] is reported as “reduces the activity of SDF-1α to inhibit cAMP”. Further, the Emax in assay [2] (read-out: SDF-1α Emax reduced to, in the presence of 1 μM AMD3100) stood at 40%. Further, the results for the “migration activity (words)” value in assay [3] and in assay [3] (listed as AMD 3100) were “blocked; also recorded: completely blocks SDF-1α induced migration; also recorded: unable to inhibit UCUF-965-induced migration; also recorded: does not inhibit the migratory response of CEM-CCRF cells induced by UCUF-965” and “able to inhibit the migration response induced by SDF-1α”, respectively. Also, the IC50 in assay [3] (Homo sapiens, read-out: logIC50, inhibition of migration (converted)) is 31.6 nM. Also, the “displacement of SDF-1α binding” value in assay [4] is “dose-dependently displaced SDF-1α; also recorded: dose-dependently displaced SDF-1a saturation binding; also recorded: dose-dependently inhibited SDF-1α saturation binding”.
Regarding `CCOc1ccccc1-c1nnc2n1N=C(c1ccc(N3CCCC3)cc1)CS2` [Entry 23], the results for the EC50 in assay [2] (inhibition of forskolin-stimulated cAMP) and in assay [5] were 50 nM and 20 nM, respectively.
For `CCOc1ccccc1-c1nnc2n1N=C(c1ccc(N3CCCC3=O)cc1)CS2` [compound 63], the “cAMP inhibition activity” value in assay [2] is on record as “partial agonist activity”. In addition, the “migration activity (words)” value in assay [3] is recorded as “partial agonist activity”.
Consider SDF-1α, for which, in assay [1], the “cAMP signaling / forskolin-induced adenylate cyclase” value is on record as “inhibited forskolin-induced adenylate cyclase”. Besides, in assay [2] (CXCR4 overexpressing CHO cells, read-out: IC50, inhibition of forskolin-stimulated cAMP production), the IC50 was 1.5 nM. Also, the “log IC50, inhibition of forskolin-stimulated cAMP production” value in assay [2] (log value) is −8.9±0.1 M.

Broadly, the Emax is the size of the effect at its maximum, as opposed to the concentration needed. Usually EC50 stands for the midpoint of the concentration-response curve.
